Source: PMC8952009 (Pharmaceuticals, 2022)
“Also recorded” adds a separate entry of the source.

What was measured:
[1] = target: T1, SARS-CoV-2 M^pro (Severe acute respiratory syndrome coronavirus 2, UniProt P0DTD1); assay: biochemical; details: for inhibition at 100 µM: read-out: Inhibition of enzymatic activity
T1 construct: This main protease is located in nsp5; purchased AnaSpec

[2] = target: SARS-CoV-1 M^pro (Severe acute respiratory syndrome coronavirus, UniProt P0C6X7); assay: biochemical; details: for inhibition at 100 µM: read-out: Inhibition of enzymatic activity
[3] = target: MERS-CoV M^pro (Middle East respiratory syndrome-related coronavirus, UniProt K9N7C7); assay: biochemical; details: for inhibition at 100 µM: read-out: MERS-CoV M^pro activity inhibited to
[4] = target: T2, recombinant M^pro of SARS-CoV-2 (Severe acute respiratory syndrome coronavirus 2, UniProt P0DTD1); assay: biochemical; format: binding
T2 construct: This main protease is located in nsp5; purchased Bio-Techne

[5] = target: recombinant M^pro of SARS-CoV-1 (Severe acute respiratory syndrome coronavirus, UniProt P0C6X7); assay: biochemical; format: binding
[6] = target: recombinant M^pro of MERS-CoV (Middle East respiratory syndrome-related coronavirus, UniProt K9N7C7); assay: biochemical; format: binding
[7] = system: hepatitis C virus (HCV); details: chronic HCV infection; oral doses of 0.05 and 0.10 mg/kg/d; cited from earlier work
[8] = system: human immunodeficiency virus (HIV); details: orally administered, 0.5 mg/kg daily; limited number of patients; cited from earlier work
[9] = Resazurin cell viability assay; details: human, MRC-5 lung fibroblasts
[10] = system: human diploid MRC-5 lung fibroblasts; assay: Resazurin cell viability assay; details: MRC-5; tested range 0.3–100 µM; 72 h
[11] = system: SARS-CoV-2; details: cited from earlier work

MERS-CoV M^pro, sequence (K9N7C7 3248-3553 limits assumed): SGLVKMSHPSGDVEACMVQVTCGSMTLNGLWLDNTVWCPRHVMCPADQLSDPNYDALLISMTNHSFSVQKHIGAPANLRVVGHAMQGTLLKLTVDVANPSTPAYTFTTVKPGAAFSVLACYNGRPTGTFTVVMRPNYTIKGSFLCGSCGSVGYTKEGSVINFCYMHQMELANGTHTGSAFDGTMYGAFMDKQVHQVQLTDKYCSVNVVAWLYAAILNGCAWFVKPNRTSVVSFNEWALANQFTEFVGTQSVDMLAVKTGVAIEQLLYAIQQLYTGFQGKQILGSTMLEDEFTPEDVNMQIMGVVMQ
recombinant M^pro of MERS-CoV, sequence (K9N7C7 3248-3553 limits assumed): as above

Structure (SMILES) | IC50 [1] [µM] | Percentage of activity of SARS-CoV-2 M^pro in the presence of compound [1] [%] | Therapeutic Index [1] | inhibition at 100 µM [1] [%] | IC50 [2] [µM] | Therapeutic Index [2] | IC50 [3] [µM] | Therapeutic Index [3] | Kd [4] [µM] | Kd [5] [µM] | Kd [6] [µM] | Anti-HCV activity in patients [7] | Antiretroviral activity in clinical trial [8] | CC50 at 72 h [9] [µM] | Inhibitory effect on cell viability [10] | inhibition at 100 µM [2] [%] | inhibition at 100 µM [3] [%] | IC50 value, inhibition of SARS-CoV-2 replication [11] [ng/µL]
Cc1cc(O)c2c(=O)c3c(O)cc(O)c4c5c(O)cc(O)c6c(=O)c7c(O)cc(C)c8c1c2c(c34)c(c78)c65 [Hypericin] | 23.3 ± 1.21 | 4.95 | 2.38 | > 50 | 19.4 ± 3.11 | 2.85 | 49.7 ± 5.41 | 1.11 | 7.73 ± 6.5 | 25.5 ± 13.6 | 54.9 ± 13.8 | without detectable anti-HCV activity | without antiretroviral activity | 55.5 ± 2.2 | slight toxicity | – | – | –
O=C(/C=C/c1ccc(O)c(O)c1)O[C@H](Cc1ccc(O)c(O)c1)C(=O)O [Rosmarinic acid] | 9.43 ± 0.46 | 8.28 | – | > 50 | – | – | – | – | 15.5 ± 4.77 | – | – | – | – | – | did not show significant inhibitory effects; also recorded: did not inhibit | 31 | 14.9 | 25.47
O=c1cc(-c2ccc(O)c(O)c2)oc2cc(O)cc(O)c12 [Luteolin] | 11.8 ± 1.27 | 10.10 | – | > 50 | – | – | – | – | 13.4 ± 2.7 | – | – | – | – | – | – | 44 | 21.3 | –
COc1cc(-c2oc3cc(O)cc(O)c3c(=O)c2O)ccc1O [Isorhamnetin] | 8.42 ± 1.15 | 8.56 | 4.37 | > 50 | 13.1 ± 1.78 | 2.8 | – | – | 4.37 ± 3.9 | 3.6 ± 2.6 | – | – | – | 36.8 ± 3.4 | slight toxicity | – | 26.3 | –
